In US7579376B2, “Geranyl compounds” (Ohgen Research Laboratories, Ltd., priority 2002, dated 2009):

What was measured:
[1] = Toxicity against host mice (weight loss, death rate) in the HuH-7 antitumor test; assay type: in vivo; conditions: 250 μg/mouse intraperitoneally once per day for 3 weeks, six mice per group; for Toxicity Death rate: death rate during the test period; for Toxicity Weight loss: mouse weight relative to control group (100%)
Procedure: (§1) Carcinoma of HuH-7 cells (dendriform cell strain of human hepatoma) hypodermically implanted or subimplanted in the backs of 5-weeks old female nude mice (BALB/c, Ninox) was aseptically taken out and crushed into 5×5 mm sized pieces in a phosphate buffer solution (PBS), a piece of which then being hypodermically implanted in the backs of the nude mice.
(§2) Each test substance was dissolved in corn oil, and the solution was intraperitoneally administered to the nude mice consecutively once per day at a rate of 250 μg/mouse for 3 weeks, starting from a week after the implantation. After termination of the administration, the carcinomas were taken out and weighed to calculate the antitumor effect and the mice' weight loss by the following equations. For the test six mice per group were used, and the group administered with the solvent (corn oil) alone was made the control group:
(§3) Evaluations of antitumor effect and weight loss were conducted according to the following standard, where the control group values were held to be 100%.

[2] = system: HuH-7 cells (dendriform cell strain of human hepatoma); test: Measurement of antitumor effect: HuH-7 carcinoma pieces hypodermically implanted in nude mice, carcinomas weighed after administration; assay type: in vivo; conditions: Huh-7, ip, 504 h, carcinoma weight relative to control group (100%), 250 μg/mouse intraperitoneally in corn oil once per day for 3 weeks, starting a week after implantation
Procedure: Measurement of Antitumor Effect
as §1, §2, §3
• −: >100%, +/−: 100˜75%, +: 75˜50%, ++: 50˜25%, +++: 25˜0% Weight Loss • −: >110%, +/−: 110˜100%, +: 100˜95%, ++: 95˜90%, +++: <90% Death Rate (Death Rate During the Test Period) • −: none • +/−: death occurred with high concentration administration (500 μg/mouse) • +: 1-3 mice dead • ++: 3-5 mice dead • +++: all 6 mice dead Synthetic Evaluation • −: weak antitumor effect and very strong toxicity against host mice • +/−: weak antitumor effect recognizable and toxicity against host mice also observable • +: a fixed level of antitumor effect observable but toxicity against host mice also strong • ++: strong antitumor effect observed and toxicity against host mice week • +++: strong antitumor effect observed and no toxicity against host mice

With `CC(C)=CCC/C(C)=C/C(=O)NC1C(O)OC(CO)C(O)C1O` (stereo not drawn) the “Toxicity Death rate” value [1] was “−”, the “Toxicity Weight loss” value [1] was “+ (100˜95%)” and the response vs control in vivo at 0.25 mg [2] was 0 to 25%.
In the case of `CC(=O)N[C@@H](Cc1ccc(O)cc1)C(=O)NC/C=C(\C)CCC=C(C)C` [N-acetyltyrosine geranylamide, N-acetyltyrosine Geranylamide], the “Toxicity Death rate” value [1] was “−”, the “Toxicity Weight loss” value [1] was “+/− (110˜100%)” and the response vs control in vivo at 0.25 mg [2] was 50 to 75%.
In the case of `CC(C)=CCC/C(C)=C/CNC(=O)CC(O)C(=O)NC/C=C(\C)CCC=C(C)C` (stereo not drawn) [N,N′-digeranylmalic diamide, N,N′-digeranylmalic Diamide], the “Toxicity Death rate” value [1] was “−”, the “Toxicity Weight loss” value [1] was “+ (100˜95%)” and the response vs control in vivo at 0.25 mg [2] was 50 to 75%.
For `CC(O)(CCO)CC(=O)NC1C(O)OC(CO)C(O)C1O` (stereo not drawn), the “Toxicity Death rate” value [1] was “−”, the “Toxicity Weight loss” value [1] was “+/− (110˜100%)” and the response vs control in vivo at 0.25 mg [2] was 25 to 50%.
In the case of `CC(C)=CCC/C(C)=C/CNC(=O)/C=C/C(=O)NC/C=C(\C)CCC=C(C)C` [N,N′-digeranylfumaric diamide, N,N′-digeranylfumaric Diamide], the “Toxicity Death rate” value [1] was “−”, the “Toxicity Weight loss” value [1] was “+/− (110˜100%)” and the response vs control in vivo at 0.25 mg [2] was 25 to 50%.
In the case of `CC(=O)C(=O)Nc1ccc(C(=O)NC/C=C(\C)CCC=C(C)C)cc1` [N-geranyl-4-pyruvoaminobenzamide, N-geranyl-p-pyruvoaminobenzamide], the “Toxicity Death rate” value [1] was “−”, the “Toxicity Weight loss” value [1] was “− (>110%)” and the response vs control in vivo at 0.25 mg [2] was 25 to 50%.
In the case of `CC(C)=CCC/C(C)=C/CNC(=O)C1OC(O)C(O)C(O)C1O` (stereo not drawn) [N-geranyl galacturonamide, N-geranylgalacturonamide], the “Toxicity Death rate” value [1] was “+/−”, the “Toxicity Weight loss” value [1] was “+/− (110˜100%)” and the response vs control in vivo at 0.25 mg [2] was 0 to 25%.
For `CC(C)=CCC/C(C)=C/CNC(=O)[C@@H](N)Cc1ccc(O)cc1` [Tyrosine geranylamide, Tyrosine Geranylamide], the “Toxicity Death rate” value [1] was “−”, the “Toxicity Weight loss” value [1] was “+/− (110˜100%)” and the response vs control in vivo at 0.25 mg [2] was 50 to 75%.
With `CC(C)=CCC/C(C)=C/C(=O)N[C@@H](Cc1ccc(O)cc1)C(=O)O` [N-geranoyltyrosine] the “Toxicity Death rate” value [1] was “−”, the “Toxicity Weight loss” value [1] was “+/− (110˜100%)” and the response vs control in vivo at 0.25 mg [2] was 25 to 50%.
With `CC(C)=CCC/C(C)=C/C(=O)NC1C(O)OC(C)C(O)C1O` (stereo not drawn) [N-fucosegeranamide] the “Toxicity Death rate” value [1] was “−”, the “Toxicity Weight loss” value [1] was “+/− (110˜100%)” and the response vs control in vivo at 0.25 mg [2] was 25 to 50%.
